In US20240000767A1, “COMBINATION OF AN ALPHA2-ADRENOCEPTOR SUBTYPE C (ALPHA-2C) ANTAGONIST WITH A TASK1/3 CHANNEL BLOCKER FOR THE TREATMENT OF SLEEP APNEA” (Bayer Aktiengesellschaft, priority 2020, published 2024) one finds IC50 data, which are given here for 28 molecules.

pIC50: −log10 of the molar value.

human ADRA2C receptor, sequence (P18825 whole entry): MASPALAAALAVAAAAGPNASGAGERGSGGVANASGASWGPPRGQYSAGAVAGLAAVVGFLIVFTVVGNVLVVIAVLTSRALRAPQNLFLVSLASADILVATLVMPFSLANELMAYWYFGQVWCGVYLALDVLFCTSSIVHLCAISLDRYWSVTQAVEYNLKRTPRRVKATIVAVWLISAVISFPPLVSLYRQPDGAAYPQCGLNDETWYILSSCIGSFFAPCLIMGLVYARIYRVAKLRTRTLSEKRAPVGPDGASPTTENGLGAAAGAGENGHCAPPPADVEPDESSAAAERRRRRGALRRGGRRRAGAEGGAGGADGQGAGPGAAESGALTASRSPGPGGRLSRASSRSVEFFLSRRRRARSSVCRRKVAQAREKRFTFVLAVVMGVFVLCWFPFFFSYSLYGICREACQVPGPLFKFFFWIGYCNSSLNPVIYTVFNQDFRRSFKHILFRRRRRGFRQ

The experiment concerns the target human ADRA2C receptor (Homo sapiens (Human), UniProt P18825). Put plainly: In vitro activity assay to determine the inhibition of recombinant ADRA2C (CHO-K1 cells, aequorin bioluminescence). It counts as cell-based. The conditions noted are these: inhibition of noradrenaline-induced bioluminescence signal; some mean values from multiple determinations; read-out: ARα2C IC50. As for the experimental part:
B-2. In Vitro Activity Assay to Determine the Inhibition of Recombinant ADRA2C
The human ADRA2C receptor belongs to the G protein(guanine-dependent protein)-coupled receptors, the main function of which is the transduction of signals into the interior of the cell.
The investigations of the inhibition of the recombinant human ADRA2C receptors were carried out with stabily transfected CHO-K1 cells coexpressing the Gaq protein and the calcium-sensitive photoprotein aequorin. In this recombinant system, binding of the agonists noradrenaline to the ADRA2C receptor leads, after activation of a signal cascade, to calcium release from intracellular stores, which is detected by the intracellular calcium sensor aequorin as a bioluminescent signal. The method is described in detail in the reference below. [Wunder F., Kalthof B., Muller T., Hueser J. Functional Cell-Based Assays in Microliter Volumes for Ultra-High Throughput Screening. Combinatorial Chemistry & High Throughput Screening, Volume 11, Number 7, 2008, pp. 495-504(10). doi.org/10.2174/138620708785204054]
The activity of the test substances was determined via their ability to inhibit the agonist-induced increase of the bioluminescence signal. The concentration which can block half of this signal increase is referred to as IC50. The IC50 value is calculated using the 4 parameter logistic function (Hill function):
Top=upper threshold, Bottom=lower threshold, Slope=slope, IC50=turning point
As to `O=C(NCc1ncc(F)cc1F)c1cnc(N2CCC(N3CCCC(OCC4CC4)C3)CC2)s1` (racemic) [Example 67, rac-2-[3-(Cyclopropylmethoxy)[1,4′-bipiperidin]-1′-yl]-N-[(3,5-difluoropyridin-2-yl)methyl]-1,3-thiazole-5-carboxamide], the pIC50 is 8.66.

On to `O=C(NCc1ncc(F)cc1F)c1cnc(N2CCC(N3CCCC(COCC4CC4)C3)CC2)s1` (racemic) [Example 69, rac-2-{3-[(Cyclopropylmethoxy)methyl][1,4′-bipiperidin]-1′-yl}-N-[(3,5-difluoropyridin-2-yl)methyl]-1,3-thiazole-5-carboxamide], for which the negative logarithm of the IC50 (pIC50) is 8.26.

Consider `CCOC1CCCN(C2CCN(c3ncc(C(=O)NCc4ncc(F)cc4F)s3)CC2)C1` (racemic) [Example 70, rac-N-[(3,5-Difluoropyridin-2-yl)methyl]-2-[3-ethoxy[1,4′-bipiperidin]-1′-yl]-1,3-thiazole-5-carboxamide], for which the pIC50 is 7.66.

In the case of `O=C(NCc1ncc(F)cc1F)c1cnc(N2CCC(N3CCCC(COCC4CC(F)(F)C4)C3)CC2)s1` (racemic) [Example 75, rac-2-(3-{[(3,3-Difluorocyclobutyl)methoxy]methyl}[1,4′-bipiperidin]-1′-yl)-N-[(3,5-difluoropyridin-2-yl)methyl]-1,3-thiazole-5-carboxamide], the pIC50 is 6.46.

For the molecule `O=C(NCc1ncc(F)cc1F)c1cnc(N2CCC(N3CCCC(OCC(F)(F)F)C3)CC2)s1` (racemic) [Example 77, rac-N-[(3,5-Difluoropyridin-2-yl)methyl]-2-[3-(2,2,2-trifluoroethoxy)[1,4′-bipiperidin]-1′-yl]-1,3-thiazole-5-carboxamide], the negative logarithm of the IC50 (pIC50) was 6.19.

On to `CC(C)C1CCCN(C2CCN(c3ncc(C(=O)NCc4ncc(F)cc4F)s3)CC2)C1` (racemic) [Example 103, rac-N-[(3,5-Difluoropyridin-2-yl)methyl]-2-(3-isopropyl[1,4′-bipiperidin]-1′-yl)-1,3-thiazole-5-carboxamide], for which the pIC50 was 9.08.

`O=C(NCc1ncc(F)cc1F)c1cnc(N2CCC(N3CCCC(OC4CCC4)C3)CC2)s1` (racemic) [Example 109, rac-2-[3-(Cyclobutyloxy)[1,4′-bipiperidin]-1′-yl]-N-[(3,5-difluoropyridin-2-yl)methyl]-1,3-thiazole-5-carboxamide]: the pIC50 was 9.07.

Turning to `O=C(NCc1ncc(F)cc1F)c1cnc(N2CCC(N3CCCC(OC4CC(F)(F)C4)C3)CC2)s1` (racemic) [Example 110, rac-2-{3-[(3,3-Difluorocyclobutyl)oxy][1,4′-bipiperidin]-1′-yl}-N-[(3,5-difluoropyridin-2-yl)methyl]-1,3-thiazole-5-carboxamide], the pIC50 is 8.82.

`CCCC1CCCN(C2CCN(c3ncc(C(=O)NCc4ncc(F)cc4F)s3)CC2)C1` (racemic) [Example 121, rac-N-[(3,5-Difluoropyridin-2-yl)methyl]-2-(3-propyl[1,4′-bipiperidin]-1′-yl)-1,3-thiazole-5-carboxamide]: the pIC50 is 9.19.

Take `O=C(NCc1ncc(F)cc1F)c1cnc(N2CCC(N3CCCC(CCF)C3)CC2)s1` (racemic) [Example 127, rac-Formic acid N-[(3,5-difluoropyridin-2-yl)methyl]-2-[3-(2-fluoroethyl)[1,4′-bipiperidin]-1′-yl]-1,3-thiazole-5-carboxamide]: the pIC50 was 8.08.

Take `O=C(NCc1ncc(F)cc1F)c1cnc(N2CCC(N3CCCC(c4ccccc4)C3)CC2)s1` (racemic) [Example 133, rac-N-[(3,5-Difluoropyridin-2-yl)methyl]-2-(3-phenyl[1,4′-bipiperidin]-1′-yl)-1,3-thiazole-5-carboxamide]: the pIC50 is 9.02.

In the case of `CC(NC(=O)c1cnc(N2CCC(N3CCC[C@@H](C)C3)CC2)s1)c1cc(F)ccc1F` (single isomer, unassigned) [Example 46], the pIC50 is 8.08.

Regarding `CC(NC(=O)c1cnc(N2CCC(N3CCC[C@@H](C)C3)CC2)s1)c1cc(F)ccc1F` (single isomer, unassigned) [Example 47], the pIC50 is 7.60.

Consider `C[C@@H]1CCCN(C2CCN(c3ncc(C(=O)NCc4ncc(F)cc4F)s3)CC2F)C1` (single isomer, unassigned) [Example 51], for which the pIC50 is 6.82.

With `C[C@@H]1CCCN(C2CCN(c3ncc(C(=O)NCc4ncc(F)cc4F)s3)CC2F)C1` (single isomer, unassigned) [Example 52], the pIC50 is 8.17.

In the case of `COCC1CCCN(C2CCN(c3ncc(C(=O)NCc4ncc(F)cc4F)s3)CC2)C1` (single isomer, unassigned) [Example 99, ent-N-[(3,5-Difluoropyridin-2-yl)methyl]-2-[3-(methoxymethyl) [1,4′-bipiperidin]-1′-yl]-1,3-thiazole-5-carboxamide], the pIC50 was 6.23.

With `CC1CCCN(C2CCN(c3ncc(C(=O)NCc4ncc(F)cc4F)s3)CC2)CC1` (single isomer, unassigned) [Example 104, ent-N-[(3,5-Difluoropyridin-2-yl)methyl]-2-[4-(4-methylazepan-1-yl)piperidin-1-yl]-1,3-thiazole-5-carboxamide], the pIC50 was 8.00.

`CC1CCCN(C2CCN(c3ncc(C(=O)NCc4ncc(F)cc4F)s3)CC2)CC1` (single isomer, unassigned) [Example 105, ent-N-[(3,5-Difluoropyridin-2-yl)methyl]-2-[4-(4-methylazepan-1-yl)piperidin-1-yl]-1,3-thiazole-5-carboxamide]: the pIC50 is 8.37.

For `O=C(NCc1ncc(F)cc1F)c1cnc(N2CCC(N3CCCC(COCC(F)(F)F)C3)CC2)s1` (single isomer, unassigned) [Example 106, ent-N-[(3,5-Difluoropyridin-2-yl)methyl]-2-{3-[(2,2,2-trifluoroethoxy)methyl][1,4′-bipiperidin]-1′-yl}-1,3-thiazole-5-carboxamide], the pIC50 is 9.30.

Consider `O=C(NCc1ncc(F)cc1F)c1cnc(N2CCC(N3CCCC(COCC(F)(F)F)C3)CC2)s1` (single isomer, unassigned) [Example 107, ent-N-[(3,5-Difluoropyridin-2-yl)methyl]-2-{3-[(2,2,2-trifluoroethoxy)methyl][1,4′-bipiperidin]-1′-yl}-1,3-thiazole-5-carboxamide], for which the pIC50 is 7.43.

On to `CCOC1CCCN(C2CCN(c3ncc(C(=O)NCc4ncc(F)cc4F)s3)CC2)C1` (single isomer, unassigned) [Example 123, ent-N-[(3,5-Difluoropyridin-2-yl)methyl]-2-(3-ethoxy[1,4′-bipiperidin]-1′-yl)-1,3-thiazole-5-carboxamide], for which the pIC50 is 6.59.

Consider `CCOC1CCCN(C2CCN(c3ncc(C(=O)NCc4ncc(F)cc4F)s3)CC2)C1` (single isomer, unassigned) [Example 124, ent-N-[(3,5-Difluoropyridin-2-yl)methyl]-2-(3-ethoxy[1,4′-bipiperidin]-1′-yl)-1,3-thiazole-5-carboxamide], for which the pIC50 is 8.54.

Turning to `O=C(NCc1ncc(F)cc1F)c1cnc(N2CCC(N3CCCC(COCC4CC4)C3)CC2)s1` (single isomer, unassigned; ent-2) [Example 115, ent-2-{3-[(Cyclopropylmethoxy)methyl][1,4′-bipiperidin]-1′-yl}-N-[(3,5-difluoropyridin-2-yl)methyl]-1,3-thiazole-5-carboxamide], the pIC50 is 9.21.

As to `O=C(NCc1ncc(F)cc1F)c1cnc(N2CCC(N3CCCC(COCC4CC4)C3)CC2)s1` (single isomer, unassigned; ent-2) [Example 116, ent-2-{3-[(Cyclopropylmethoxy)methyl][1,4′-bipiperidin]-1′-yl}-N-[(3,5-difluoropyridin-2-yl)methyl]-1,3-thiazole-5-carboxamide], the pIC50 is 7.96.

Regarding `O=C(NCc1ncc(F)cc1F)c1cnc(N2CCC(N3CCCC4(C3)CC4(F)F)CC2)s1` (single isomer, unassigned; ent-2) [Example 131, ent-2-[4-(1,1-Difluoro-5-azaspiro[2.5]octan-5-yl)piperidin-1-yl]-N-[(3,5-difluoropyridin-2-yl)methyl]-1,3-thiazole-5-carboxamide], the pIC50 is 8.72.

As to `O=C(NCc1ncc(F)cc1F)c1cnc(N2CCC(N3CCCC4(C3)CC4(F)F)CC2)s1` (single isomer, unassigned; ent-2) [Example 132, ent-2-[4-(1,1-Difluoro-5-azaspiro[2.5]octan-5-yl)piperidin-1-yl]-N-[(3,5-difluoropyridin-2-yl)methyl]-1,3-thiazole-5-carboxamide (enantiomer 2)], the pIC50 is 9.15.

As for `O=C(NCc1ncc(F)cc1F)c1cnc(N2CCC(N3CCc4ccccc4C3)CC2)s1` [Example 2, N-[(3,5-Difluoropyridin-2-yl)methyl]-2-[4-(3,4-dihydroisoquinolin-2(1H)-yl)piperidin-1-yl]-1,3-thiazole-5-carboxamide], the pIC50 is 8.28.

For the molecule `Cc1nc(N2CCC(N3CCC[C@@H](C)C3)CC2)sc1C(=O)NCc1ncc(F)cc1F` [Example 8, N-[(3,5-difluoropyridin-2-yl)methyl]-4-methyl-2-[(3R)-3-methyl[1,4′-bipiperidin]-1′-yl]-1,3-thiazole-5-carboxamide], the negative-log IC50 (pIC50) was 6.23.

As a reminder, the pIC50 is the IC50 on a negative log10 scale, so that one unit is a factor of ten.
